Data from PMC7016953 (Cells, 2020).

How the values were obtained:
hTRPM2 = system: T1, hTRPM2; test: Selectivity profiling, fluo-4 [Ca2+]i response, TRPM2; type: cell-based, human; conditions: 100 µM
T1 construct: expressed in transfected cells
Method: (§1) Human embryonic kidney 293 (HEK293) cells were stably transfected with expression plasmids that encode hTRPC3-YFP, hTRPC6-YFP, hTRPC7-YFP, mTRPC4ß-YFP, rTRPV1-CFP, rTRPV2-YFP, rTRPV3-YFP, mTRPV4-YFP, or hTRPM2 as previously described. Cell lines were cultured in Earle’s minimum essential medium (MEM; Sigma, Munich, Germany), supplemented with 10% fetal calf serum (Gibco Thermo Fisher Scientific, Darmstadt, Germany), 2 mM L-glutamine, and required concentrations of geneticin in a range of 0.4–1 mg/mL. A HEK293mTRPC5-YFP cell line was maintained and induced as described before. […] For electrophysiological and single cell [Ca^2+]i imaging experiments, PC12 cells were plated onto 25 mm poly-L-lysine-coated glass coverslips and measured 24–48 h after seeding. […]
(§2) The primary compound screen and the generation of concentration response curves in HEK293 cells or in PC12 cells were performed by using a custom-made fluorescence plate imager built into a robotic liquid handling station equipped with a 96-tip multichannel head (Freedom Evo 150, Tecan, Männedorf, Switzerland) as described previously. […] Plates were mounted on the imager, and fluorescence signals were recorded with a cooled Zyla 5.5 camera (Andor, Belfast, UK) through a 515 nm long pass filter. […] When inhibitory potencies were evaluated, a second pipetting step with the respective reference agonist was performed. […]

hTRPC6-YFP = system: T2, hTRPC6-YFP; test: Fluo-4 Ca2+ influx assay in HEK293 cells stably expressing TRPC6; type: cell-based, human; conditions: for effect on TRPC6: fluo-4 concentration response analysis
T2 construct: expressed in transfected cells

rTRPV1-CFP = system: T3, rTRPV1-CFP; test: Selectivity profiling, fluo-4 [Ca2+]i response, TRPV1; type: cell-based, rat; conditions: 100 µM
T3 construct: expressed in transfected cells
Method: as §1, §2

[1] = system: TRPC4, TRPC5, TRPA1, TRPM2, TRPM3, TRPM8, TRPV1, TRPV2, TRPV4, or TRPV4; test: Selectivity profiling, inhibition of activator responses in the TRP channel panel; type: cell-based; conditions: 100 µM, subsequent stimulation with channel-specific activators
Method: as §1, §2

TRPC7 = system: T4, TRPC7; test: Whole-cell patch-clamp recordings in HEK TRPC7-YFP cells; type: cell-based, human; conditions: 100 µM artemisinin
T4 construct: expressed in transfected cells
Method: The recordings of TRPC3, TRPC6, or TRPC7 membrane currents in HEK293 or PC12 cells were realized by using a Multiclamp 700B amplifier with a Digidata 1440A digitizer controlled by the PClamp 10 software (all Molecular Devices, Sunnyvale, CA, U.S.A.). Recordings were obtained at room temperature either in the whole-cell or in an outside-out configuration as indicated. Cells were seeded as described above, but at lower density, mounted in a chamber (Warner Instruments, Hamden, CT; U.S.A.), placed onto the stage of an inverted microscope, and perfused with required solution. The standard extracellular solution contained 140 mM NaCl, 5 mM CsCl, 2 mM MgCl2, 1 mM CaCl2, 10 mM HEPES, and 0.035% BSA adjusted to pH 7.4 with NaOH. The composition of standard intracellular solution was 140 mM CsCl, 1 mM MgCl2, 5 mM EGTA, and 10 mM HEPES adjusted to pH 7.25 with CsOH; the osmolarity was 295 mOsm l^−1. In outside-out measurements, the pipette solution contained 5 mM EGTA and 1.1 mM CaCl2 to achieve a calculated free Ca^2+ concentration of 100 nM.
Patch pipettes were pulled from borosilicate glass capillaries BG150F-8P (Science Products, Hofheim, Germany) with a PIP6 pipette puller (HEKA Elektronik, Lambrecht, Germany). […] In all whole-cell measurements, the series resistance was lower than 13 MΩ, and compensated by 70%. […]

`C[C@@H]1CC[C@H]2[C@@H](C)C(=O)O[C@@H]3O[C@@]4(C)CC[C@@H]1[C@]32OO4` [artemisinin] was tested, and the “[Ca2+]i response, TRPM2” value (hTRPM2) was “none of the cell lines responded”, the “effect on TRPC6” value (hTRPC6-YFP) was “marked preference to activate TRPC3, but not the closely related TRPC6 channel” and the “effect on TRPC6” value (hTRPC6-YFP; listed as Artemisinin) was “rather inhibits TRPC6”. The “signal in counterscreen with TRPC6-expressing cells” value (hTRPC6-YFP; primary screen, 20 µM) was “no signals”, the “[Ca2+]i response, TRPV1” value (rTRPV1-CFP) was “none of the cell lines responded” and the “inhibition of the investigated channels compared to the solvent control” value [1] was “did not observe a significant inhibition”. The “ionic currents in TRPC7-expressing HEK cells” value (TRPC7) was “only weakly enhanced”.
